The source made the active and inactive calls. The rule behind the calls is not given here.
Assays:
KYSE-520 cell line = assay: Antiproliferative activity in human KYSE520 cells assessed as inhibition of cell proliferation by Cell-titer-Glo method; format: functional
[1] = Antiproliferative activity in human OE21 cells assessed as inhibition of cell proliferation by Cell-titer-Glo method; format: functional
MOLM-13 = assay: Antiproliferative activity in human MOLM13 cells assessed as inhibition of cell proliferation by Cell-titer-Glo method; format: functional
MV4-11 = assay: Antiproliferative activity in human MV4-11 cells assessed as inhibition of cell proliferation by Cell-titer-Glo method; format: functional
OE19 = assay: Antiproliferative activity in human OE19 cells assessed as inhibition of cell proliferation by Cell-titer-Glo method; format: functional
HUVEC [2] = assay: Antiangiogenic activity in HUVEC assessed as inhibition of cell migration incubated for 6 to 24 hrs by wound healing assay; format: functional, cell-based; conditions: Homo sapiens
HUVEC [3] = assay: Antiangiogenic activity in HUVEC assessed as inhibition of cell migration at 2.5 uM incubated for 6 to 24 hrs by wound healing assay; format: functional, cell-based; conditions: Homo sapiens

Question: Which GI50 (KYSE-520 cell line) does the source give for C[C@@H]1C(=O)O[C@]23C=CC(=O)[C@H]1[C@]2(C)[C@@H](C)CC[C@H]3O here?
Answer: 6.4 to 8.6 µM

Question: What about the GI50 [1] of the same compound?
Answer: 6.4 to 8.6 µM

Question: What about the GI50 (MOLM-13) of the same compound?
Answer: 6.4 to 8.6 µM

Question: And the GI50 (MV4-11)?
Answer: 6.4 to 8.6 µM

Question: And the GI50 (OE19)?
Answer: 6.4 to 8.6 µM

Question: Which Activity (HUVEC [2]) does the source give for C/C1=C/[C@@]2(C)C(=CCC[C@@H]2C)CC[C@H](O)[C@H]1O here?
Answer: Dose-dependent effect

Question: What about the Activity (HUVEC [3]) of the same compound?
Answer: Active

Question: Which results are given for CC1=C([C@@]2(C)C3=CC(=O)O[C@@H]3CC[C@@H]2C)C(=O)NC1=O?
Answer: Activity (HUVEC [2]): Dose-dependent effect; Activity (HUVEC [3]): Active
